# In the NIST ThermoML archive (doi:10.1016/j.tca.2013.05.039):
# Numbers after ± are expanded uncertainties.
# Tests used:
# [1] = Adiabatic calorimetry
# [2] = Molar enthalpy of transition or fusion; conditions: Adiabatic calorimetry
structure (smiles),measurement,setting,value
C1CCCCC1 [cyclohexane],Triple point temperature,[1]; Crystal 2,186.18 ± 0.049 K
same,Triple point temperature,[1]; Crystal,279.86 ± 0.066 K
same,Molar enthalpy of transition or fusion,[2]; Crystal 2,1.61 ± 0.0163 kcal/mol
same,Molar enthalpy of transition or fusion,[2]; Crystal,0.642 ± 0.0129 kcal/mol
